Here are results for four compounds from patent US4435381A, “Thiouronium phosphonates for use in dental treatments” (priority 1983, dated 1984).

In test [1] the test system is S. mutans. Briefly: Acid inhibition (AI): 0.1 normal NaOH needed to neutralize acid produced by S. mutans from sucrose after 48 hours. The class given is cell-based. Conditions: trypticase-yeast medium containing sucrose, 48 hours incubation. The procedure:
Acid inhibition (AI) is a measure of acid production when S. mutans attacks sucrose to form pyruvic and lactic acids. The organism is added to a culture medium (trypticase-yeast) containing sucrose, and after 48 hours incubation, the quantity of 0.1 normal NaOH (in ml) needed to neutralize the acid is measured.

For test [2], the system named is S. mutans. Briefly: Minimum inhibitory and minimum bactericidal concentrations against S. mutans grown in a typical culture medium. The class given is cell-based. The note with it: Streptococcus mutans; for MBC: read-out: MBC (minimum bactericidal concentration); for MIC: read-out: MIC (minimum inhibitory concentration).
Test [3] deals with S. mutans. The test is described as follows: Plaque inhibition in the hamster (S. mutans infected). The class given is in vivo, Golden Syrian hamsters. Conditions: Test 2; mean scoring value (approximate percentage of surface); 28 days, 0.3% Methocel suspension, 200 μl per treatment; Methocel control 13.96 ± 1.49; significantly different from control at p ≤ 0.01. The procedure: Representative thiouronium phosphonates were tested against hamsters as in vivo subjects, as follows.
Golden Syrian hamsters (3-4 wks of age), obtained from GIBCO Animal Resources Laboratories, Madison, Wis. were used in all studies. Upon receipt, the animals were randomly distributed into cages of three animals of the same sex per cage. Experimental groups consisted of twelve animals, six males and six females. Food (Diet 2000, General Biochemicals Co.) and deionized water were allowed ad libitum. Food consumption was monitored three times a week while animal weights were checked twice a week.
After an acclimation period of 10 days, the oral cavities of the hamsters were infected with a cariogenic strain of S. mutans (ATCC 10449, SR 500). This was accomplished by injecting […] of a 24 hr. culture grown static in Todd-Hewitt broth (supplemented with 0.5% lactalbumin hydrolysate) into their mouths, and by adding 2 ml/100 ml of the culture to their drinking water. This was repeated daily for four days. On the fifth day, fresh water was given to the hamsters.
To insure that the organism had actually implanted, the oral cavity of each hamster was swabbed on the sixth day. […]
After all data had been recorded, the codes were broken, the data re-grouped and the various treatment groups compared by a non-parametric one-way analysis of variance.

Setting [4] is: against S. mutans grown in a typical culture medium.

≈ marks a conversion by molar mass, not a printed value. Like-named read-outs stand apart in the source and are kept apart here.

`CCCCCCCCCCSC(=N)N` [n=10, R=C6 H5, n-Decyl thiouronium phenylphosphonate]: the “AI (acid inhibition; amount of 0.1 normal NaOH required)” value in the test with S. mutans [1] is 1.25 mL. In the test with S. mutans [2] (setting [4]), the MBC worked out at 3.9 µg/mL (≈ 18 µM) and the MIC came to 2 µg/mL (≈ 9.24 µM).

Take `CCCCCCCCCCCSC(=N)N` [n=11, R=C6 H5]: in the test on S. mutans [1], the “AI (acid inhibition; amount of 0.1 normal NaOH required)” value was 0.5 mL. Further, in the test on S. mutans [2] (setting [4]), the MBC came out at 2 µg/mL (≈ 8.68 µM) and the MIC came out at 1 µg/mL (≈ 4.34 µM).

Turning to `CCCCCCCCCCCCCSC(=N)N` [n=13, R=C6 H5, Tridecyl thiouronium phenylphosphonate], the “AI (acid inhibition; amount of 0.1 normal NaOH required)” value with S. mutans [1] was found to be 0.3 mL. For the same compound, in the test with S. mutans [2] (setting [4]), the MBC was 2 µg/mL (≈ 7.74 µM) and the MIC is 1 µg/mL (≈ 3.87 µM). The “Molar Surface Covered with Plaque” value in the test on S. mutans [3] came to 7.06 ± 1.16.

For `CCCCCCCCCCCCCCSC(=N)N` [n=14, R=CH3, n-Tetradecyl thiouronium methanephosphonate], the “AI (acid inhibition; amount of 0.1 normal NaOH required)” value in the test with S. mutans [1] amounted to 0.5 mL. Further, in the test with S. mutans [2], the MBC was 7.8 µg/mL (≈ 28.6 µM) and the MIC came out at 1 µg/mL (≈ 3.67 µM).
